The source made the active and inactive calls. Cut-off read from the data, not from the text of the source, for most assays here: actives have a measured Kd and inactives only a lower limit.
How the values were obtained:
[1] = target: Dual specificity mitogen-activated protein kinase kinase 1 (Homo sapiens, UniProt Q02750)
[2] = target: Glycogen synthase kinase-3 beta (Homo sapiens, UniProt P49841)
[3] = target: T1, Tyrosine-protein kinase Tec (Homo sapiens, UniProt P42680)
T1 sequence (P42680 whole entry): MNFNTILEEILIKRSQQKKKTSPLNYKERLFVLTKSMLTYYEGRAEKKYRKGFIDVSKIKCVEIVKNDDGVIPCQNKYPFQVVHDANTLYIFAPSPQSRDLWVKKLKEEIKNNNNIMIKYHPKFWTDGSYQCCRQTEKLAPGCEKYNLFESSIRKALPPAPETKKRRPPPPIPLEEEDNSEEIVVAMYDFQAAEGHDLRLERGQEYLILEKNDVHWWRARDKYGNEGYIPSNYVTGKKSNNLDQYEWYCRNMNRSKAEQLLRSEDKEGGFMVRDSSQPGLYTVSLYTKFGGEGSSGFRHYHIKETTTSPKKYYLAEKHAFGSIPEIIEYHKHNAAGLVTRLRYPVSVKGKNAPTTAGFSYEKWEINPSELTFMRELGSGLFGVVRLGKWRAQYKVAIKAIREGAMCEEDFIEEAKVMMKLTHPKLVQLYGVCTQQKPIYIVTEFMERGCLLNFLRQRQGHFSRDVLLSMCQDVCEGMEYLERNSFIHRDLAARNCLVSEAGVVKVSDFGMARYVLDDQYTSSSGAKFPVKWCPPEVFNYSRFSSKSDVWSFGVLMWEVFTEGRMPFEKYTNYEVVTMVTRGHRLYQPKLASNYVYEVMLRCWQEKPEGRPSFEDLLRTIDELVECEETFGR

[4] = target: Rho-associated protein kinase 1 (Homo sapiens, UniProt Q13464)
Sequence of Rho-associated protein kinase 1 (Q13464 whole entry): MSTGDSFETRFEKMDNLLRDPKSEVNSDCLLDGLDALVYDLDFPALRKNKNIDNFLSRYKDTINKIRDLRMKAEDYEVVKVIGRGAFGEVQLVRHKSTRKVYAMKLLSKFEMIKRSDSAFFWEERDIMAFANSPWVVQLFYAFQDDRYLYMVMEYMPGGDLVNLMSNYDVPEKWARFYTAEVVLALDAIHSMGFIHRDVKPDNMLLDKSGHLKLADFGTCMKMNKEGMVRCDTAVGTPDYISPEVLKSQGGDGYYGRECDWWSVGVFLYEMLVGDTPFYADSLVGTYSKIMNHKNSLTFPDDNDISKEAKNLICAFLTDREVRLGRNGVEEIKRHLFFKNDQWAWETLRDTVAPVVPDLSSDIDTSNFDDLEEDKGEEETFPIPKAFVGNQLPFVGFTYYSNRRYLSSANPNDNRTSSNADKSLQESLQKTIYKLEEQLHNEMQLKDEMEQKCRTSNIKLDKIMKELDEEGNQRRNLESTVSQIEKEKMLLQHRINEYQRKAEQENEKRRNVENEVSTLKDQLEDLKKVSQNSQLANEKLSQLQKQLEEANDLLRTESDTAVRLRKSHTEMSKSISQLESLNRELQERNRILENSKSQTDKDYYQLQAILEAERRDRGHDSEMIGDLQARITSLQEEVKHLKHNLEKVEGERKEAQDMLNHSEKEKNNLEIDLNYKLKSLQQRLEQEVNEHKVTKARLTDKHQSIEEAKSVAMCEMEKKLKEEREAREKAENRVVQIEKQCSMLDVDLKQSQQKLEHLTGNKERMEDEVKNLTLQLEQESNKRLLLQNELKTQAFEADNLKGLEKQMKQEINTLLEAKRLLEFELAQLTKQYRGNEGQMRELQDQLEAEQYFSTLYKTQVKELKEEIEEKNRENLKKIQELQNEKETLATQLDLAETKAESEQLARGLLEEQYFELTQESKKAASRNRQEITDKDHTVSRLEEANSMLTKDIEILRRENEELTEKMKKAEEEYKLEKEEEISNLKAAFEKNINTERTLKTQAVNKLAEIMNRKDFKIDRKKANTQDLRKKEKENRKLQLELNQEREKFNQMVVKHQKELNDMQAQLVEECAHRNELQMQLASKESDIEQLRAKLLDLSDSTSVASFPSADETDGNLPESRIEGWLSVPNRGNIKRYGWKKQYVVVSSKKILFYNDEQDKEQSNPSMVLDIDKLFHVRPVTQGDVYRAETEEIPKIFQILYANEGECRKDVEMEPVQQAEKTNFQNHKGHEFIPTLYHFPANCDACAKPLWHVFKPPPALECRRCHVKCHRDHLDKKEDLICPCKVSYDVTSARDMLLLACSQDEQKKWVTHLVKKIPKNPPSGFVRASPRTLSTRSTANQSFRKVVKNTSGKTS

[5] = target: T2, Thyroid hormone receptor-associated protein 3 (Homo sapiens, UniProt Q9Y2W1)
T2 sequence (Q9Y2W1 whole entry): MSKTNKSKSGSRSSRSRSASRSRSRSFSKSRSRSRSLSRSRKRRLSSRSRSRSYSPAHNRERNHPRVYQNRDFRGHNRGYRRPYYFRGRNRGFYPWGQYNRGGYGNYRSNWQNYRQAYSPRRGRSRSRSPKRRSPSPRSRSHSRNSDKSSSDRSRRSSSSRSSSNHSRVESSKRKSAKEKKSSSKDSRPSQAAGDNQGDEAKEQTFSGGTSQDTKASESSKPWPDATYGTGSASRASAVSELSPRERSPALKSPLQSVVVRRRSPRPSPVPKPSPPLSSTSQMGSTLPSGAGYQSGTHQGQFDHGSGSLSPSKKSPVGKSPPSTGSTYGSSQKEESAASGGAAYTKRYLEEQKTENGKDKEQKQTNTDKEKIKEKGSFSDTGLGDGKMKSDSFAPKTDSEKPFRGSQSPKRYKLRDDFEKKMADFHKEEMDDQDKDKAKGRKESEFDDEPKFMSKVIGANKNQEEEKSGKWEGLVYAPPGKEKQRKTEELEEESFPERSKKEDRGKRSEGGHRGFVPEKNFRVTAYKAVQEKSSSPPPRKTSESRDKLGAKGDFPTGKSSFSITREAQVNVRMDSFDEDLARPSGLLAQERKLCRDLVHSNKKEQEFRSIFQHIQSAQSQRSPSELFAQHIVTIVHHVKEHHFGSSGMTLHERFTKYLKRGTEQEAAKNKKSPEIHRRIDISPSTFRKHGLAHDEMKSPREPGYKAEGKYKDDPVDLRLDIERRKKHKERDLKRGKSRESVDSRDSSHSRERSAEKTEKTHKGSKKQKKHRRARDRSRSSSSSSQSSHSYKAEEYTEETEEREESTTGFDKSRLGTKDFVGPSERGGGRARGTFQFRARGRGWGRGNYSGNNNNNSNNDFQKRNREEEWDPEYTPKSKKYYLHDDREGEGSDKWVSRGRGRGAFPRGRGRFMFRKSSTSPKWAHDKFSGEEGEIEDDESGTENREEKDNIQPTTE
Note: in the data inactive means no Kd found up to 30 µM.

Sequence of Dual specificity mitogen-activated protein kinase kinase 1 (Q02750 whole entry): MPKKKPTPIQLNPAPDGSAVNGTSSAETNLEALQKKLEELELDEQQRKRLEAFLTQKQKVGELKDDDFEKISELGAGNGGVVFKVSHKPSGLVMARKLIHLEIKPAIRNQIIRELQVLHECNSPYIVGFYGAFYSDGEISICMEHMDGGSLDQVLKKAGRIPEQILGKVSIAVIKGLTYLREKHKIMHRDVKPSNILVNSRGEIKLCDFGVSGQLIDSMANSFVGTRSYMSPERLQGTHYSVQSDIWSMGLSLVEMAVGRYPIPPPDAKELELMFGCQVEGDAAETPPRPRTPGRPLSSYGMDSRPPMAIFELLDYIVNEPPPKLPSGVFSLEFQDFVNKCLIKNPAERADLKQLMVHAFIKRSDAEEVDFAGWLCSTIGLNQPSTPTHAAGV
Sequence of Glycogen synthase kinase-3 beta (P49841 whole entry): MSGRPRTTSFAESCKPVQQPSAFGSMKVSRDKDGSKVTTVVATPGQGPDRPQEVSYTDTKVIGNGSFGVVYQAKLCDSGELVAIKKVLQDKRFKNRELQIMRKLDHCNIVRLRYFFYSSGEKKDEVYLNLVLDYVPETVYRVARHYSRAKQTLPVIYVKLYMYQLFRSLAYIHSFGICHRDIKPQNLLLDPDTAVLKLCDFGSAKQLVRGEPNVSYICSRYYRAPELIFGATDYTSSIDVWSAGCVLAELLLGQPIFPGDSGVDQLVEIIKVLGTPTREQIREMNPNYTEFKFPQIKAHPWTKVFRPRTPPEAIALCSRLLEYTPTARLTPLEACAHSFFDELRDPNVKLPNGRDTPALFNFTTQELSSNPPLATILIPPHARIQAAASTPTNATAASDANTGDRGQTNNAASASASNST

| Structure (SMILES) | Kd [1] | Kd [2] | Kd [3] | Kd [4] | Kd [5] |
| --- | --- | --- | --- | --- | --- |
| COc1cccc(Nc2ncnn3ccc(CN4CC[C@@H](N)[C@H](O)C4)c23)c1 [BMS-690514] | > 30 µM (inactive) | > 30 µM (inactive) | > 30 µM (inactive) |  |  |
| CC[C@@](C)(Nc1ccnc(-c2c[nH]c3ncccc23)n1)C(=O)NCC(F)(F)F [DECERNOTINIB] | > 30 µM (inactive) | > 30 µM (inactive) | > 30 µM (inactive) | 13.5 µM (active) |  |
| Cc1cc(-c2cc(OC(=O)c3ccccc3)ccc2Cl)cc2nnc(Nc3ccc(OCCN4CCCC4)cc3)nc12 [TG100-801] | > 30 µM (inactive) | > 30 µM (inactive) | > 30 µM (inactive) | > 30 µM (inactive) | > 30 µM (inactive) |
| CC(C)(O)CC(=O)NCCn1ccc2ncnc(Nc3ccc(Oc4cccc(C(F)(F)F)c4)c(Cl)c3)c21 [TAK-285] | > 30 µM (inactive) | > 30 µM (inactive) | > 30 µM (inactive) | > 30 µM (inactive) |  |
| Cc1c(NC(=O)OC[C@@H]2COCCN2)cn2ncnc(Nc3ccc4c(cnn4Cc4cccc(F)c4)c3)c12 [AC-480] | > 30 µM (inactive) | > 30 µM (inactive) | > 30 µM (inactive) | > 30 µM (inactive) | > 30 µM (inactive) |
| C=CCN(/C=C1/C(=O)O[C@H](COC)[C@@]2(C)C1=C(O)C(=O)C1=C2[C@H](OC(C)=O)C[C@]2(C)C(=O)CC[C@@H]12)CC=C [SONOLISIB] | > 30 µM (inactive) | > 30 µM (inactive) | > 30 µM (inactive) | > 30 µM (inactive) | > 30 µM (inactive) |
| O=C(O)c1ccc2c(c1)nc(Nc1cccc(Cl)c1)c1ccncc12 [SILMITASERTIB] | > 30 µM (inactive) |  | > 30 µM (inactive) |  | > 30 µM (inactive) |
| CN(C)C/C=C/C(=O)Nc1cc2c(Nc3ccc(F)c(Cl)c3)ncnc2cc1O[C@H]1CCOC1 [AFATINIB] |  |  |  |  | > 30 µM (inactive) |
| NC(=O)c1ccc(N(C(N)=O)c2c(F)cccc2F)nc1-c1ccc(F)cc1F [VX-702] | > 30 µM (inactive) | > 30 µM (inactive) | > 30 µM (inactive) | > 30 µM (inactive) | > 30 µM (inactive) |
| CCc1nc(C(N)=O)c(Nc2ccc(N3CCC(N4CCN(C)CC4)CC3)c(OC)c2)nc1NC1CCOCC1 [GILTERITINIB] |  | > 30 µM (inactive) | > 30 µM (inactive) | > 30 µM (inactive) | > 30 µM (inactive) |
| COc1cc2ncnc(Nc3ccc(O)cc3)c2cc1OC [WHI-P131] | > 30 µM (inactive) | > 30 µM (inactive) | > 30 µM (inactive) | > 30 µM (inactive) | > 30 µM (inactive) |
| O=c1[nH]c([C@@H]2CCCN2)nc2c1oc1ccc(Cl)cc12 | > 30 µM (inactive) | 8.79 µM | > 30 µM (inactive) |  |  |

Reference: ChEMBL document CHEMBL3991601, “The target landscape of clinical kinase drugs” (Science, 2017)
